Test [1] concerns human small lung cancer cell line H2171. The test is described as follows: Cell Viability Assay (ATPlite). It is filed as cell-based. The conditions noted are these: Homo sapiens, NCI-H2171, 72 h, Table 2, compounds of FIG. 1; H2171 cells, three days, ATPlite; calculated IC50 class; read-out: H2171 Activity. Summed up: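 H2171 cells were plated at 20,000 cells/mL and dosed immediately by pin transfer with a 10-point dose series in DMSO. After three days at 37° C, ATPlite luminescence served as the viability readout.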

In a further test the target is T1, c-Myc/Max/Ebox DNA (Homo sapiens, UniProt P01106).
T1 construct: his6 (cleaved yes)
T1 sequence (P01106 whole entry): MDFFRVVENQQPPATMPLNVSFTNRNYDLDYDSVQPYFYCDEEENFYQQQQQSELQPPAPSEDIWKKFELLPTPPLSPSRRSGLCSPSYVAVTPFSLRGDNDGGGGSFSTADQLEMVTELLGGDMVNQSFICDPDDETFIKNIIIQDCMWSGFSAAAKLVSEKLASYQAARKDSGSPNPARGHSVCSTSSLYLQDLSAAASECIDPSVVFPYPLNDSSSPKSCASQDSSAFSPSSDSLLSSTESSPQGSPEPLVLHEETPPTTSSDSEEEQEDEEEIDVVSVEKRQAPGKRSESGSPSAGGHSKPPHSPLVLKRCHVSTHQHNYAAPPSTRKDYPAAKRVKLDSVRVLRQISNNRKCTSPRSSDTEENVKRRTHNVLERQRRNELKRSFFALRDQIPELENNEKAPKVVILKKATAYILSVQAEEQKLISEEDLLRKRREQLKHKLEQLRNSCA
The test is described as follows: c-Myc/Max/Ebox DNA AlphaScreen Assay. It is filed as binding. The conditions noted are these: Table 2, compounds of FIG. 1; calculated IC50 class. Summed up: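 Compounds were preincubated with free c-Myc (20 nM), biotinylated single-Ebox DNA (10 nM) and Ni acceptor beads before his6-Max (5 nM) and streptavidin donor beads were added. Buffer was 50 mM HEPES pH 8.0, 150 mM NaCl, BSA, Tween20, glycogen and DTT, with DMSO ≤2%. After 2 h incubation, AlphaScreen signal was read at 680 nm excitation and 520–620 nm emission.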

In patent US10787444B2, “Compounds for the modulation of myc activity” (Syros Pharmaceuticals, Inc., priority 2015, dated 2020) one finds IC50 data, which are given here for 15 compounds.

Structures are written as SMILES.

With `COCCNCCC(=O)Nc1sc2c(c1-c1nc3ccc(-c4cccc(C(=O)NCCN(C)C)c4)cc3s1)CCNC2` [compound 493], the IC50 (in test [1]; on c-Myc/Max/Ebox DNA) was less than 300 nM each time.
`COCCNCCC(=O)Nc1sc2c(c1-c1nc3cc(C4=CCNCC4)ccc3s1)CCNC2` [compound 497]: the IC50 (in test [1]; on c-Myc/Max/Ebox DNA) was less than 300 nM throughout.
As for `COCCNCCC(=O)Nc1sc2c(c1-c1nc3ccc(-c4ccc(N5CCNCC5)nc4)cc3s1)CCNC2` [compound 504], the IC50 (in test [1]; on c-Myc/Max/Ebox DNA) was less than 300 nM throughout.
For the compound `CC(C)NCCC(=O)Nc1sc2c(c1-c1nc3c(-c4cnn(C)c4)cccc3s1)CCNC2` [compound 515], the IC50 (in test [1]; on c-Myc/Max/Ebox DNA) was less than 300 nM throughout.
As to `CC(C)NCCC(=O)Nc1sc2c(c1-c1nc3c(Br)cccc3s1)CCNC2` [compound 516], the IC50 (in test [1]; at c-Myc/Max/Ebox DNA) was less than 300 nM in each case.
With `CC(C)NCCC(=O)Nc1sc2c(c1-c1nc3c(-c4cccnc4)cccc3s1)CCNC2` [compound 534], the IC50 (in test [1]; at c-Myc/Max/Ebox DNA) was less than 300 nM each time.
With `CC(C)NCCC(=O)Nc1sc2c(c1-c1nc3c(-c4ccncc4)cccc3s1)CCNC2` [compound 535], the IC50 (in test [1]; on c-Myc/Max/Ebox DNA) was less than 300 nM in each case.
`CC(C)NCCC(=O)Nc1sc2c(c1-c1nc3c(S(C)(=O)=O)cccc3s1)CCNC2` [compound 553]: the IC50 (in test [1]; at c-Myc/Max/Ebox DNA) was less than 300 nM in each case.
For `COCCNCCC(=O)Nc1sc2c(c1-c1nc3c(Br)cccc3s1)CCNC2` [compound 559], the IC50 (in test [1]; at c-Myc/Max/Ebox DNA) was less than 300 nM in each case.
With `COCCNCCC(=O)Nc1sc2c(c1-c1nc3c(C#N)cccc3s1)CCNC2` [compound 568], the IC50 (in test [1]; at c-Myc/Max/Ebox DNA) was less than 300 nM each time.
Regarding `CC(C)NCCC(=O)Nc1sc2c(c1-c1nc3cc(NS(C)(=O)=O)ccc3s1)CCNC2` [compound 581], the IC50 (in test [1]; on c-Myc/Max/Ebox DNA) was less than 300 nM in each case.
On to `COCCNCCC(=O)Nc1sc2c(c1-c1nc3c(CO)cccc3s1)CCNC2` [compound 598], for which the IC50 (in test [1]; at c-Myc/Max/Ebox DNA) was less than 300 nM in each case.
Take `CCc1cccc2nc(-c3c(NC(=O)CCNCCOC)sc4c3CCNC4)sc12` [compound 599]: the IC50 (in test [1]; at c-Myc/Max/Ebox DNA) was less than 300 nM throughout.
In the case of `COCCNCCC(=O)Nc1sc2c(c1-c1nc3c(NC4COC4)cccc3s1)CCNC2` [compound 600], the IC50 (in test [1]; on c-Myc/Max/Ebox DNA) was less than 300 nM throughout.
For the compound `COCCNCCC(=O)Nc1sc2c(c1-c1nc3c(C(F)(F)F)cccc3s1)CCNC2` [compound 611], the IC50 (in test [1]; on c-Myc/Max/Ebox DNA) was less than 300 nM in each case.
